Test results: publication PMC11435058, “Synthesis of New Thiazole-Privileged Chalcones as Tubulin Polymerization Inhibitors with Potential Anticancer Activities” (Pharmaceuticals, 2024)

Experiments:
MDA-MB-468 = test: NCI-60 anticancer screen (SRB; single dose and five doses); format: cell-based, human; details: Homo sapiens, 48 h; MDA-MB-468; dose of 10 μM; read-out: Growth Percentage
Protocol: The methodology of the NCI anticancer screening has been described in detail elsewhere (http://www.dtp.nci.nih.gov). For detailed information, see Appendix A in the Supplementary Materials.
4.2.1. Screening of the anticancer activity against a panel of 60 cell Lines.
The methodology of the NCI anticancer screening has been described in detail elsewhere (http://www.dtp.nci.nih.gov.) Briefly, the primary anticancer assay was performed at approximately 60 human tumor cell lines panel derived from nine neoplastic diseases, in accordance with the protocol of the Drug Evaluation Branch, National Cancer Institute, Bethesda. Tested compounds were added to the culture at a single concentration (10μM) and the cultures were incubated for 48 h. End -point determinations were made with a protein binding dye, SRB. Results for each tested compound was reported as the percent of growth of the treated cells when compared to the untreated control cells. The percentage growth was evaluated spectrophotometrically versus controls not treated with test agents. […]

SNB-19 = test: cells; details: Homo sapiens, SNB-19, 48 h, read-out: Growth Percentage
OVCAR-3 = test: cells; details: Homo sapiens, OVCAR-3, 48 h, read-out: Growth Percentage
EKVX = test: NCI-60 anticancer screen (SRB; single dose and five doses); details: Homo sapiens, 48 h, read-out: Growth Percentage
NCI-H23 = test: as above; details: Homo sapiens, NCI-H23, 48 h, read-out: Growth Percentage
NCI-H460 = test: as above; details: Homo sapiens, NCI-H460, 48 h, read-out: Growth Percentage
NCI-H522 = test: as above; details: Homo sapiens, NCI-H522, 48 h, read-out: Growth Percentage
HCC-2998 = test: as above; details: Homo sapiens, HCC 2998, 48 h, read-out: Growth Percentage
HCT-116 = test: as above; details: Homo sapiens, HCT-116, 48 h, read-out: Growth Percentage
SW-620 = test: as above; details: Homo sapiens, SW-620, 48 h, read-out: Growth Percentage
SF-539 = test: as above; details: Homo sapiens, SF-539, 48 h, read-out: Growth Percentage
SNB-75 = test: as above; details: Homo sapiens, SNB-75, 48 h, read-out: Growth Percentage
U251 = test: as above; details: Homo sapiens, U-251, 48 h, read-out: Growth Percentage
M14 = test: as above; details: Homo sapiens, M14, 48 h, read-out: Growth Percentage
MDA-MB-435 = test: as above; details: Homo sapiens, MDA-MB-435, 48 h, read-out: Growth Percentage
SK-MEL-28 = test: as above; details: Homo sapiens, SK-MEL-28, 48 h, read-out: Growth Percentage
OVCAR-4 = test: as above; details: Homo sapiens, OVCAR-4, 48 h, read-out: Growth Percentage
OVCAR-8 = test: as above; details: Homo sapiens, OVCAR-8, 48 h, read-out: Growth Percentage
786-0 = test: as above; details: Homo sapiens, 786-0, 48 h, read-out: Growth Percentage
A498 = test: as above; details: Homo sapiens, A498, 48 h, read-out: Growth Percentage, A498; dose of 10 μM
ACHN = test: as above; details: Homo sapiens, 48 h, read-out: Growth Percentage
SN12C = test: as above; details: Homo sapiens, 48 h, read-out: Growth Percentage
TK-10 = test: as above; details: Homo sapiens, TK-10, 48 h, read-out: Growth Percentage
UO-31 = test: as above; details: Homo sapiens, UO-31, 48 h, read-out: Growth Percentage
SK-OV-3 = test: as above; details: Homo sapiens, SK-OV-3, 48 h, read-out: Growth Percentage

Cc1[nH]c(=S)sc1C(=O)/C=C/c1ccccc1 [2a, (E)-1-(4-Methyl-2-Thioxo-2,3-Dihydrothiazol-5-yl)-3-Phenylprop-2-En-1-One]
activity at 10 µM (MDA-MB-468): 20.8%
activity at 10 µM (SNB-19): 66.8%
activity at 10 µM (OVCAR-3): 42.7%
activity at 10 µM (EKVX): 73.1%
activity at 10 µM (NCI-H23): 77.5%
activity at 10 µM (NCI-H460): 56.7%
activity at 10 µM (NCI-H522): 71.7%
activity at 10 µM (HCC-2998): 91.3%
activity at 10 µM (HCT-116): 49.4%
activity at 10 µM (SW-620): 69.1%
activity at 10 µM (SF-539): 41.7%
activity at 10 µM (SNB-75): 92.7%
activity at 10 µM (U251): 56.9%
activity at 10 µM (M14): 77.1%
activity at 10 µM (MDA-MB-435): 50.1%
activity at 10 µM (SK-MEL-28): 85.2%
activity at 10 µM (OVCAR-4): 76.4%
activity at 10 µM (OVCAR-8): 65.8%
activity at 10 µM (786-0): 68.1%
activity at 10 µM (A498): 106%
activity at 10 µM (ACHN): 71.8%
activity at 10 µM (SN12C): 66.1%
activity at 10 µM (TK-10): 80.3%
activity at 10 µM (UO-31): 39.3%

COc1ccc(/C=C/C(=O)c2sc(=S)[nH]c2C)c(OC)c1 [2n, (E)-3-(2,4-Dimethoxyphenyl)-1-(4-Methyl-2-Thioxo-2,3-Dihydrothiazol-5-yl)Prop-2-En-1-One]
activity at 10 µM (MDA-MB-468): 19.2%
activity at 10 µM (SNB-19): 77.4%
activity at 10 µM (OVCAR-3): 91.2%
activity at 10 µM (EKVX): 56.2%
activity at 10 µM (NCI-H23): 72.9%
activity at 10 µM (NCI-H460): 89.8%
activity at 10 µM (NCI-H522): 73.5%
activity at 10 µM (HCC-2998): 80.7%
activity at 10 µM (HCT-116): 62.3%
activity at 10 µM (SW-620): 84.9%
activity at 10 µM (SF-539): 87.3%
activity at 10 µM (U251): 68.6%
activity at 10 µM (M14): 75.8%
activity at 10 µM (MDA-MB-435): 84.7%
activity at 10 µM (SK-MEL-28): 92.8%
activity at 10 µM (OVCAR-4): 52%
activity at 10 µM (OVCAR-8): 81.5%
activity at 10 µM (SK-OV-3): 101%
activity at 10 µM (786-0): 85.9%
activity at 10 µM (A498): 101%
activity at 10 µM (ACHN): 77%
activity at 10 µM (SN12C): 81%
activity at 10 µM (TK-10): 94.1%

Cc1[nH]c(=S)sc1C(=O)/C=C/c1ccccc1Cl [2d, (E)-3-(2-Chlorophenyl)-1-(4-Methyl-2-Thioxo-2,3-Dihydrothiazol-5-yl)Prop-2-En-1-One]
activity at 10 µM (MDA-MB-468): 30.8%
activity at 10 µM (SNB-19): 85.2%
activity at 10 µM (OVCAR-3): 77.4%
activity at 10 µM (EKVX): 35.6%
activity at 10 µM (NCI-H23): 91.8%
activity at 10 µM (NCI-H460): 82.2%
activity at 10 µM (NCI-H522): 90.1%
activity at 10 µM (HCC-2998): 132%
activity at 10 µM (HCT-116): 44.6%
activity at 10 µM (SW-620): 82%
activity at 10 µM (SF-539): 93.6%
activity at 10 µM (U251): 63.3%
activity at 10 µM (M14): 82.3%
activity at 10 µM (MDA-MB-435): 80.8%
activity at 10 µM (SK-MEL-28): 101%
activity at 10 µM (OVCAR-4): 90.3%
activity at 10 µM (OVCAR-8): 85.4%
activity at 10 µM (SK-OV-3): 118%
activity at 10 µM (786-0): 93.1%
activity at 10 µM (A498): 116%
activity at 10 µM (ACHN): 93.4%
activity at 10 µM (SN12C): 80%
activity at 10 µM (UO-31): 73.7%

Cc1[nH]c(=S)sc1C(=O)/C=C/c1cccc(F)c1 [2b, (E)-3-(3-Fluorophenyl)-1-(4-Methyl-2-Thioxo-2,3-Dihydrothiazol-5-yl)Prop-2-En-1-One]
activity at 10 µM (MDA-MB-468): -22.7%
activity at 10 µM (SNB-19): 44%
activity at 10 µM (OVCAR-3): -1.17%
activity at 10 µM (EKVX): 68.6%
activity at 10 µM (NCI-H23): 71.1%
activity at 10 µM (NCI-H460): 43.2%
activity at 10 µM (NCI-H522): 63.9%
activity at 10 µM (HCC-2998): 58.2%
activity at 10 µM (HCT-116): 21.2%
activity at 10 µM (SW-620): 20.9%
activity at 10 µM (SF-539): 6.17%
activity at 10 µM (U251): 17.6%
activity at 10 µM (M14): 78.5%
activity at 10 µM (MDA-MB-435): 35.9%
activity at 10 µM (SK-MEL-28): 93.7%
activity at 10 µM (OVCAR-4): 79.5%
activity at 10 µM (OVCAR-8): 60.5%
activity at 10 µM (SK-OV-3): 111%
activity at 10 µM (786-0): 46.9%
activity at 10 µM (A498): 106%
activity at 10 µM (ACHN): 56%
activity at 10 µM (SN12C): 32.1%
activity at 10 µM (UO-31): 44.3%
